In patent US7399784B2, “Tocopherol and tocotrienol anti-obesity medicaments” (Children's Hospital & Research Center at Oakland, priority 2002, dated 2008):

Columns and labels:
[1] = test system: embryonic cell (C3H10T1/2); assay: Adipocyte differentiation of C3H10T1/2 cells induced with insulin plus drugs; assay type: cell-based; conditions: differentiation induced with insulin plus indomethacin, troglitazone or 15-deoxy-delta(12,14)-prostaglandin-J2
Excerpt: For these example, differentiation was induced in the presence of insulin with drugs, including indomethacin, and troglitazone, one of the anti-diabetes drugs of the thiazolidinedione family, as well as 15-deoxy-delta (12, 14)-prostaglandin-J2, a putative endogenous ligand for the peroxisome proliferator-activated receptor-gamma. Our results clearly indicate that tocopherols and tocotrienols inhibit adipogenesis.

adipocytes = assay: Weight gain and adipocyte triglyceride accumulation in mice fed a high-fat diet; assay type: in vivo, BALB/c mice; conditions: food admixture 0.1%, 3%, 0.02% or 0.01%
Experimental: We evaluate weight gain and triglyceride accumulation in adipocytes in mice fed a high-fat diet. Six-week-old BALB/c mice are fed powdered chow with various tocopherols and tocotrienols and mixtures thereof, as 0.1%, 3%, 0.02%, or 0.01% food admixtures. For histological analysis of adipose and hepatic tissues and determination of adipocyte size, adipose tissue is removed from each animal and fixed in 10% formaldehyde/PBS and maintained at 4° C. until use. Fixed specimens are dehydrated, embedded in tissue-freezing medium and frozen in dry ice and acetone. White adipose tissue is cut into 10-μm sections, and the sections mounted on silanized slides. The adipose tissue is stained with hematoxylin and eosin (H&E). Mature white adipocytes are identified by their characteristic […] appearance. Total adipocyte areas are traced manually and analyzed with Win ROOF software (Mitani Co. Ltd., Chiba, Japan). White adipocyte areas are measured in 400 or more cells per mouse in each group according to methods previously described (Kubota, N. et al.1999, Mol. Cell. 4:597-609).

[2] = treatment of diabetes; Malinowski et al. 2000; cited from earlier work
insulin-secreting cells = conditions: Sjoholm et al. 2000; cited from earlier work
leptin = conditions: healthy individuals; Ismermann et al. 1999; cited from earlier work

| Compound | anti-adipogenesis activity (inhibition of differentiation to adipocytes) [1] | intracellular triglyceride accumulation [1] | triglyceride accumulation in adipocytes (adipocytes) | weight gain (adipocytes) | weight gain and obesity [2] | protection against functional inhibition by nitric oxide (insulin-secreting cells) | leptin expression (leptin) |
| --- | --- | --- | --- | --- | --- | --- | --- |
| CC(C)=CCC/C(C)=C/CC/C(C)=C/CC[C@]1(C)CCc2cc(O)cc(C)c2O1 [delta-tocotrienol] | dose-dependent anti-adipogenesis activity | decrease intracellular triglyceride accumulation | reduced triglyceride accumulation in adipocytes | reduced weight gain |  |  |  |
| Cc1c(C)c2c(c(C)c1O)CCC(C)(COc1ccc(CC3SC(=O)NC3=O)cc1)O2 (stereo not drawn) [troglitazone] |  |  |  |  | commonly leads to weight gain and obesity |  |  |
| Cc1cc(O)cc2c1O[C@](C)(CCC[C@H](C)CCC[C@H](C)CCCC(C)C)CC2 [delta-T, delta-tocopherol] | dose-dependent anti-adipogenesis activity | decrease intracellular triglyceride accumulation | reduced triglyceride accumulation in adipocytes | reduced weight gain |  |  |  |
| alpha-tocotrienol | dose-dependent anti-adipogenesis activity | decrease intracellular triglyceride accumulation | reduced triglyceride accumulation in adipocytes | reduced weight gain |  |  |  |
| Cc1c(O)cc2c(c1C)O[C@](C)(CCC[C@H](C)CCC[C@H](C)CCCC(C)C)CC2 [gamma-T, gamma-tocopherol] | dose-dependent anti-adipogenesis activity | decrease intracellular triglyceride accumulation | reduced triglyceride accumulation in adipocytes | reduced weight gain |  | partially protects |  |
| CN(CCOc1ccc(CC2SC(=O)NC2=O)cc1)c1ccccn1 (stereo not drawn) [rosiglitazone] |  |  |  |  | commonly leads to weight gain and obesity |  |  |
| Cc1c(C)c2c(c(C)c1O)CC[C@@](C)(CCC[C@H](C)CCC[C@H](C)CCCC(C)C)O2 [alpa-T, alpha-tocopherol, reference compound] | much less effective | much less effective |  |  |  |  | induces leptin expression |
| CC(C)=CCC/C(C)=C/CC/C(C)=C/CC[C@]1(C)CCc2cc(O)c(C)c(C)c2O1 [gamma-tocotrienol] | dose-dependent anti-adipogenesis activity | decrease intracellular triglyceride accumulation | reduced triglyceride accumulation in adipocytes | reduced weight gain |  |  |  |
| CCc1ccc(CCOc2ccc(CC3SC(=O)NC3=O)cc2)nc1 (stereo not drawn) [proglitazone] |  |  |  |  | commonly leads to weight gain and obesity |  |  |
